# Data as given in ChEMBL document CHEMBL5715260, “Selectivity Literature for EUbOPEN Chemogenomic Library” (2024).
# Assays:
# [1] = target: T1, Retinoic acid receptor RXR-alpha (Homo sapiens) (UniProt P19793); experiment: Selectivity interaction (Reporter gene assay) EUB0001166a RXRA; parameters: recommended concentration 1 uM; details: reference bexarotene 1 uM, Selectivity number of off-targets 0.0, Selectivity number of targets 1.0, Source Knowledge inhouse
# T1 sequence (whole entry): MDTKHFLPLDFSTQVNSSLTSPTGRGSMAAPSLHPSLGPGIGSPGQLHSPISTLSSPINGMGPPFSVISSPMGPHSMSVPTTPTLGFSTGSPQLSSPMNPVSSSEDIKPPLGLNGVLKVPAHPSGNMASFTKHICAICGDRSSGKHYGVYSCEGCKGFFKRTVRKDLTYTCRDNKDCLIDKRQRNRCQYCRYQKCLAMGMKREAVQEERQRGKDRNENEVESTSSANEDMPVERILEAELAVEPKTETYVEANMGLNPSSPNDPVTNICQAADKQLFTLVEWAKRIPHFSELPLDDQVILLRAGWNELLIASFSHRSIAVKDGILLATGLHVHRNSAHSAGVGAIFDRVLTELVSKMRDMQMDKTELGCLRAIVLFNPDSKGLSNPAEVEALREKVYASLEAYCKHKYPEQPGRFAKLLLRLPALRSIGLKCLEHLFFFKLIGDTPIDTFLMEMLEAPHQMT
# [2] = target: Nuclear receptor subfamily 4immunitygroup A member 1 (Homo sapiens) (UniProt P22736); experiment: Selectivity interaction (Reporter gene assay) EUB0001166a NR4A1; parameters: recommended concentration 1 uM
# [3] = target: T2, Nuclear receptor subfamily 2 group C member 1 (Homo sapiens) (UniProt P13056); experiment: Selectivity interaction (Reporter gene assay) EUB0001166a NR2C1; parameters: recommended concentration 1 uM
# T2 sequence (whole entry): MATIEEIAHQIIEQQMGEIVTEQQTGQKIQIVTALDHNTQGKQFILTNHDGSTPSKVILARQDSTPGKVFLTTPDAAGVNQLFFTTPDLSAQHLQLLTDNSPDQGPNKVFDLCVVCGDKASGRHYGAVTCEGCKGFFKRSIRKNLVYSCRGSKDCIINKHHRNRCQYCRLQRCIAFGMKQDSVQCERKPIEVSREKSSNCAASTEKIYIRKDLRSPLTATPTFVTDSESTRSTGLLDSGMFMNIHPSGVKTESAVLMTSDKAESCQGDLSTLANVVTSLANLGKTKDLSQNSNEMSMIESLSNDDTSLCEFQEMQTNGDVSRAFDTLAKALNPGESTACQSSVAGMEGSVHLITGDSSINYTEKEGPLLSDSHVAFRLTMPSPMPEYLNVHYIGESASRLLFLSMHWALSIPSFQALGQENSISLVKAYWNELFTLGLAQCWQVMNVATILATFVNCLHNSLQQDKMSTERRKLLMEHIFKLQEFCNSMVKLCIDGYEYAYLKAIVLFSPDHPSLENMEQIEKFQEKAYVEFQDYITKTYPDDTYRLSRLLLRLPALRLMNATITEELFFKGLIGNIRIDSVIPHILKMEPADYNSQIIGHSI
# [4] = target: T3, Hepatocyte nuclear factor 4-alpha (Homo sapiens) (UniProt P41235); experiment: Selectivity interaction (Reporter gene assay) EUB0001166a HNF4A; parameters: recommended concentration 1 uM
# T3 sequence (whole entry): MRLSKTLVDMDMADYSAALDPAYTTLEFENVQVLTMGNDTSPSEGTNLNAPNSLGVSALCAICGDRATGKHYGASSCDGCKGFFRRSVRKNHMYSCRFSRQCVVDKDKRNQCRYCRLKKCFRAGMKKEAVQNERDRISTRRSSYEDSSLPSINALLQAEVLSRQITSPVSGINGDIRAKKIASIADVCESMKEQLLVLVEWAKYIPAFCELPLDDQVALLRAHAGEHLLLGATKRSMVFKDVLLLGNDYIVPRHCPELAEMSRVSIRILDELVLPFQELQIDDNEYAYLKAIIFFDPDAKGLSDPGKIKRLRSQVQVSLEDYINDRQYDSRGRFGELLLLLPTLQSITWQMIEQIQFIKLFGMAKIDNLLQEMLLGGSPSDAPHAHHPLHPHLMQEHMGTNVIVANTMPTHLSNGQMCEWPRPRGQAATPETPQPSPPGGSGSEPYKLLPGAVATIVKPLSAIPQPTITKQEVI
# [5] = target: Nuclear receptor subfamily 2 group E member 1 (Homo sapiens) (UniProt Q9Y466); experiment: Selectivity interaction (Reporter gene assay) EUB0001166a NR2E1; parameters: recommended concentration 1 uM
# [6] = target: T4, Alpha trans-inducing protein (Human alphaherpesvirus 1) (UniProt A0A5J6DW59); experiment: Selectivity interaction (Reporter gene assay) EUB0001166a UL48; parameters: recommended concentration 1 uM
# [7] = target: Steroidogenic factor 1 (Homo sapiens) (UniProt Q13285); experiment: Selectivity interaction (Reporter gene assay) EUB0001166a NR5A1; parameters: recommended concentration 1 uM
# [8] = target: T2, Nuclear receptor subfamily 2 group C member 1 (Homo sapiens); experiment: Selectivity interaction (Reporter gene assay) EUB0001163a NR2C1; parameters: recommended concentration 10 uM
# [9] = target: T3, Hepatocyte nuclear factor 4-alpha (Homo sapiens); experiment: Selectivity interaction (Reporter gene assay) EUB0001163a HNF4A; parameters: recommended concentration 10 uM
# [10] = target: Nuclear receptor subfamily 2 group E member 1 (Homo sapiens) (UniProt Q9Y466); experiment: Selectivity interaction (Reporter gene assay) EUB0001163a NR2E1; parameters: recommended concentration 10 uM
# [11] = target: T4, Alpha trans-inducing protein (Human alphaherpesvirus 1); experiment: Selectivity interaction (Reporter gene assay) EUB0001163a UL48; parameters: recommended concentration 10 uM
# [12] = target: Nuclear receptor subfamily 4immunitygroup A member 1 (Homo sapiens) (UniProt P22736); experiment: Selectivity interaction (Reporter gene assay) EUB0001163a NR4A1; parameters: recommended concentration 10 uM
# [13] = target: T1, Retinoic acid receptor RXR-alpha (Homo sapiens); experiment: Selectivity interaction (Reporter gene assay) EUB0001163a RXRA; parameters: recommended concentration 10 uM; details: reference bexarotene 1 uM, Selectivity number of off-targets 0.0, Selectivity number of targets 1.0, Source Knowledge inhouse
# [14] = target: Steroidogenic factor 1 (Homo sapiens) (UniProt Q13285); experiment: Selectivity interaction (Reporter gene assay) EUB0001163a NR5A1; parameters: recommended concentration 10 uM
# [15] = target: T3, Hepatocyte nuclear factor 4-alpha (Homo sapiens); experiment: Selectivity interaction (Reporter gene assay) EUB0001167a HNF4A; parameters: recommended concentration 1 uM
# [16] = target: Steroidogenic factor 1 (Homo sapiens) (UniProt Q13285); experiment: Selectivity interaction (Reporter gene assay) EUB0001167a NR5A1; parameters: recommended concentration 1 uM
# [17] = target: T2, Nuclear receptor subfamily 2 group C member 1 (Homo sapiens); experiment: Selectivity interaction (Reporter gene assay) EUB0001167a NR2C1; parameters: recommended concentration 1 uM
# [18] = target: T4, Alpha trans-inducing protein (Human alphaherpesvirus 1); experiment: Selectivity interaction (Reporter gene assay) EUB0001167a UL48; parameters: recommended concentration 1 uM
# [19] = target: Nuclear receptor subfamily 2 group E member 1 (Homo sapiens) (UniProt Q9Y466); experiment: Selectivity interaction (Reporter gene assay) EUB0001167a NR2E1; parameters: recommended concentration 1 uM
# [20] = target: Nuclear receptor subfamily 4immunitygroup A member 1 (Homo sapiens) (UniProt P22736); experiment: Selectivity interaction (Reporter gene assay) EUB0001167a NR4A1; parameters: recommended concentration 1 uM
# [21] = target: T1, Retinoic acid receptor RXR-alpha (Homo sapiens); experiment: Selectivity interaction (Reporter gene assay) EUB0001167a RXRA; parameters: recommended concentration 1 uM; details: reference bexarotene 1 uM, Selectivity number of off-targets 0.0, Selectivity number of targets 1.0, Source Knowledge inhouse
# [22] = target: T4, Alpha trans-inducing protein (Human alphaherpesvirus 1); experiment: Selectivity interaction (Reporter gene assay) EUB0001164a UL48; parameters: recommended concentration 1 uM
# [23] = target: Nuclear receptor subfamily 2 group E member 1 (Homo sapiens) (UniProt Q9Y466); experiment: Selectivity interaction (Reporter gene assay) EUB0001164a NR2E1; parameters: recommended concentration 1 uM
# [24] = target: Steroidogenic factor 1 (Homo sapiens) (UniProt Q13285); experiment: Selectivity interaction (Reporter gene assay) EUB0001164a NR5A1; parameters: recommended concentration 1 uM
# [25] = target: T1, Retinoic acid receptor RXR-alpha (Homo sapiens); experiment: Selectivity interaction (Reporter gene assay) EUB0001164a RXRA; parameters: recommended concentration 1 uM; details: reference bexarotene 1 uM, Selectivity number of off-targets 0.0, Selectivity number of targets 1.0, Source Knowledge inhouse
# [26] = target: T2, Nuclear receptor subfamily 2 group C member 1 (Homo sapiens); experiment: Selectivity interaction (Reporter gene assay) EUB0001164a NR2C1; parameters: recommended concentration 1 uM
# [27] = target: Nuclear receptor subfamily 4immunitygroup A member 1 (Homo sapiens) (UniProt P22736); experiment: Selectivity interaction (Reporter gene assay) EUB0001164a NR4A1; parameters: recommended concentration 1 uM
# [28] = target: T3, Hepatocyte nuclear factor 4-alpha (Homo sapiens); experiment: Selectivity interaction (Reporter gene assay) EUB0001164a HNF4A; parameters: recommended concentration 1 uM
# [29] = target: Steroidogenic factor 1 (Homo sapiens) (UniProt Q13285); experiment: Selectivity interaction (Reporter gene assay) EUB0001159a NR5A1; parameters: recommended concentration 1 uM
# [30] = target: T3, Hepatocyte nuclear factor 4-alpha (Homo sapiens); experiment: Selectivity interaction (Reporter gene assay) EUB0001159a HNF4A; parameters: recommended concentration 1 uM
# [31] = target: Nuclear receptor subfamily 4immunitygroup A member 1 (Homo sapiens) (UniProt P22736); experiment: Selectivity interaction (Reporter gene assay) EUB0001159a NR4A1; parameters: recommended concentration 1 uM
# [32] = target: T2, Nuclear receptor subfamily 2 group C member 1 (Homo sapiens); experiment: Selectivity interaction (Reporter gene assay) EUB0001159a NR2C1; parameters: recommended concentration 1 uM
# [33] = target: T1, Retinoic acid receptor RXR-alpha (Homo sapiens); experiment: Selectivity interaction (Reporter gene assay) EUB0001159a RXRA; parameters: recommended concentration 1 uM; details: reference bexarotene 1 uM, Selectivity number of off-targets 0.0, Selectivity number of targets 1.0, Source Knowledge inhouse
# [34] = target: Nuclear receptor subfamily 2 group E member 1 (Homo sapiens) (UniProt Q9Y466); experiment: Selectivity interaction (Reporter gene assay) EUB0001159a NR2E1; parameters: recommended concentration 1 uM
# [35] = target: T4, Alpha trans-inducing protein (Human alphaherpesvirus 1); experiment: Selectivity interaction (Reporter gene assay) EUB0001159a UL48; parameters: recommended concentration 1 uM
# Chain of Steroidogenic factor 1 (Homo sapiens) (Q13285 whole entry): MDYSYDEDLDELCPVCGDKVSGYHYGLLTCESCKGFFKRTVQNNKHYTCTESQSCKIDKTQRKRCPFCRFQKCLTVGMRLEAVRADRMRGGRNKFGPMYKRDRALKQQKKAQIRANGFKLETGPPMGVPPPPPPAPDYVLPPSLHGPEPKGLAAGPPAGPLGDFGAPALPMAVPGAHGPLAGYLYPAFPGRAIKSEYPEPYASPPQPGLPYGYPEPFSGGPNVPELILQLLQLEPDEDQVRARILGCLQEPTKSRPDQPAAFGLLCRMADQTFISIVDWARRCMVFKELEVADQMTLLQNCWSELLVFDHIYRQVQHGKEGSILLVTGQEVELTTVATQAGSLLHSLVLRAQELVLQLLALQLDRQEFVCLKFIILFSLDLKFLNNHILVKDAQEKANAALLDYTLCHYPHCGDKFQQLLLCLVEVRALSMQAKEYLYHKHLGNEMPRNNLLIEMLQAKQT
# Chain of Nuclear receptor subfamily 2 group E member 1 (Homo sapiens) (Q9Y466 whole entry): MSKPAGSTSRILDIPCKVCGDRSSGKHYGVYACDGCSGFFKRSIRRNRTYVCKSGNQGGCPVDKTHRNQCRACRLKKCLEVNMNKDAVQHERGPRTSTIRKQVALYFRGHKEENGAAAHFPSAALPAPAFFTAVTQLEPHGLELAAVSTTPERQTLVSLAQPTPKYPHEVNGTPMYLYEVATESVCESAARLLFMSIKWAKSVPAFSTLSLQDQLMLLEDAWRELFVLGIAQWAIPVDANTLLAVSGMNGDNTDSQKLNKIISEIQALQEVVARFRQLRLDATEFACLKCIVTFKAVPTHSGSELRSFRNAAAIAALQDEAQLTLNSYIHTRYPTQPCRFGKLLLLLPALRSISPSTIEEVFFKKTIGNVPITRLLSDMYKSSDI
# T4 sequence (A0A5J6DW59 as listed by the source): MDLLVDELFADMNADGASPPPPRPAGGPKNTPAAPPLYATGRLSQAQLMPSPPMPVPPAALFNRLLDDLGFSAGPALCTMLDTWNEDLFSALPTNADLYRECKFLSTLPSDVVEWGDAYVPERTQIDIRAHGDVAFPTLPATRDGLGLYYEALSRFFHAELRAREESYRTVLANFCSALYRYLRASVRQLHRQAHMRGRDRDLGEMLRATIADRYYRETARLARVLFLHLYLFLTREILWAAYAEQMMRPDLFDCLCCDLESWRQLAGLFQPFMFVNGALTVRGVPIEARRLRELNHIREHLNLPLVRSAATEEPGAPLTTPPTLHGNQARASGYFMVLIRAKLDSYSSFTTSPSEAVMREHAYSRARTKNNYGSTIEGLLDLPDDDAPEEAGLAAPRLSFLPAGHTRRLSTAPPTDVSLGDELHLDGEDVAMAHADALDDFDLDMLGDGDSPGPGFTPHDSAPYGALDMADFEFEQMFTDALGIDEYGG
# Chain of Nuclear receptor subfamily 4immunitygroup A member 1 (Homo sapiens) (P22736 whole entry): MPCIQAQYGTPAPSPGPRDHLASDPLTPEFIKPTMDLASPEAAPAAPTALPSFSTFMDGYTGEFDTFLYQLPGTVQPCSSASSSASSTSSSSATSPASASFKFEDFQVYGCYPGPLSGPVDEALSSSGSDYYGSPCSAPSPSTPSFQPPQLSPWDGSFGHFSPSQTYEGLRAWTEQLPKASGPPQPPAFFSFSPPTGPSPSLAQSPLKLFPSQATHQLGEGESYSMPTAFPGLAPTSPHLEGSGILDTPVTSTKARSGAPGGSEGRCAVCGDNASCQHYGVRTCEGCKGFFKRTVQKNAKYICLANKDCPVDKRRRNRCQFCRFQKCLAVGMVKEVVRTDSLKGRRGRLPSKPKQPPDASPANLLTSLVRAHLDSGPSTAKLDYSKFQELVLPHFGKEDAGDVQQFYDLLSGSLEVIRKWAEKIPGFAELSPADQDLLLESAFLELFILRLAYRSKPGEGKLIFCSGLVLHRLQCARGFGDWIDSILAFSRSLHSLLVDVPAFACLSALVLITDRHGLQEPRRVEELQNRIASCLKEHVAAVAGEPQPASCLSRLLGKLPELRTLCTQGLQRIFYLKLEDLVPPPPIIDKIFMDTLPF
smiles,measurement,setting,value
CC(C)(O)c1cn(-c2ccc(-c3cccc(S(C)(=O)=O)c3)cc2)c(C(C)(C)c2ccccc2Cl)n1,Relative activation,[1],0.459%
same,Fold activation,[2],1.01
same,Fold activation,[3],1.38
same,Fold activation,[4],1.15
same,Remaining activity,[5],0.931
same,P-value,[6],0.000455
same,Fold activation,[7],1.21
CCOC(=O)Nc1ccc2c(c1)N(C(=O)CN(CC)CC)c1ccccc1CC2,Fold activation,[8],1.37
same,Fold activation,[9],1.08
same,Remaining activity,[10],1.38
same,P-value,[11],0.011
same,Remaining activity,[12],1.21
same,Relative activation,[13],0.623%
same,Fold activation,[14],1.16
CC(=O)Oc1ccc2c(c1)[C@@]1(C)CCC[C@](C)(C(=O)OC(=O)[C@@]3(C)CCC[C@]4(C)c5cc(OC(C)=O)ccc5CC[C@@H]34)[C@@H]1CC2,Remaining activity,[15],0.928
same,Remaining activity,[16],0.86
same,Fold activation,[17],1.13
same,P-value,[18],0.00117
same,Fold activation,[19],1.06
same,Fold activation,[20],1.11
same,Relative activation,[21],0.795%
CCOC(=O)c1ccc(CN(Cc2ccc(-c3cccc(S(C)(=O)=O)c3)cc2)S(=O)(=O)c2c(C)cc(C)cc2C)o1,P-value,[22],0.0222
same,Remaining activity,[23],0.776
same,Fold activation,[24],1.07
same,Relative activation,[25],0.903%
same,Fold activation,[26],1.02
same,Fold activation,[27],1.26
same,Fold activation,[28],1.29
CCc1ccc(N(CC(C)C)S(=O)(=O)c2ccc(OCC3CCOCC3)c(CO)c2)cc1,Remaining activity,[29],0.989
same,Remaining activity,[30],0.994
same,Remaining activity,[31],0.905
same,Remaining activity,[32],0.852
same,Relative activation,[33],0.288%
same,Remaining activity,[34],0.852
same,P-value,[35],0.00142
